Measurements as given in article PMC2797370 (2009).

Target: T1, prostaglandin endoperoxide synthase-2 (PGHS-2) (Mus musculus, UniProt Q05769)
T1 sequence (Q05769 18-604): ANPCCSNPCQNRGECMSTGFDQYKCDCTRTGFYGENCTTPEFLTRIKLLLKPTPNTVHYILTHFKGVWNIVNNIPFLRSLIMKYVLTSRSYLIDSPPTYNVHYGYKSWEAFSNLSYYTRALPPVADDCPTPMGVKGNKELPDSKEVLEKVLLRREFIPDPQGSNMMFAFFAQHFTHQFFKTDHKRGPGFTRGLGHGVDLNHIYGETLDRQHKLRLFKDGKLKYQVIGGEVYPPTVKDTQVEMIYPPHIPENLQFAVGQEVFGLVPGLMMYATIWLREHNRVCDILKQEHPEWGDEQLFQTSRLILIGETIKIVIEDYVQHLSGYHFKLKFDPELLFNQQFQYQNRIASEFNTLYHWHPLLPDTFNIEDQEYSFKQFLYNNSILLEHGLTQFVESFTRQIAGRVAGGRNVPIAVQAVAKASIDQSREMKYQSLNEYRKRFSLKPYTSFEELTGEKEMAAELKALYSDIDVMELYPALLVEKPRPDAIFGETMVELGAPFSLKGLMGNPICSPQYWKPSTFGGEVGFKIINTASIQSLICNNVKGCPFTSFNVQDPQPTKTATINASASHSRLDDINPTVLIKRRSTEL
Assay: oxygen uptake assay of purified enzyme
Assay type: biochemical

For CCCCC/C=C\C/C=C\C/C=C\C/C=C\CCCC(=O)Nc1cccc(O)c1 [3-HPAA, N-(3-Hydroxyphenyl)eicosa-5,8,11,14-tetraenamide], the IC50 was 1600 nM.
